The values that follow come from US11970479B2, “3-(1H-pyrazol-4-yl)pyridine allosteric modulators of the M4 muscarinic acetylcholine receptor” (Merck Sharp & Dohme LLC, priority 2018, dated 2024).

The target of this assay is T1, human M4 muscarinic acetylcholine receptor (Homo sapiens, UniProt P08173).
T1 construct: expressed in transfected cells
T1 sequence (P08173 1-479): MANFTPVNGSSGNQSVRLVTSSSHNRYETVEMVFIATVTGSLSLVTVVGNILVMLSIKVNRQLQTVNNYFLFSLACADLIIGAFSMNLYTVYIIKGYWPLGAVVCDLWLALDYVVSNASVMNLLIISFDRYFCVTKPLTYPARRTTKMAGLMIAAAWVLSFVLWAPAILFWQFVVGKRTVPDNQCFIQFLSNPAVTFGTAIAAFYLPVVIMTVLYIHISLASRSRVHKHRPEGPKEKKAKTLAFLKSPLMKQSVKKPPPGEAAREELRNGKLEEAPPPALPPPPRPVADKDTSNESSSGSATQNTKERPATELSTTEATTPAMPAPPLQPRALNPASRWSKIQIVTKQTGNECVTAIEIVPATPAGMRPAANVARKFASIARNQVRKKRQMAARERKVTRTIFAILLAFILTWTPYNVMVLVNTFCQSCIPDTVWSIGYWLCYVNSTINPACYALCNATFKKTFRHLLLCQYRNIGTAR
Put plainly: human FLIPR-based M4 PAM assay (CHO-K1 cells with human M4 receptor and Gαqi5, calcium dye fluorescence, EC20 acetylcholine). It counts as cell-based. Particulars: inflection point (IP) of the dose response curve, human M4 receptor/Gαqi5, acetylcholine at 20% of maximum response, read-out: M4PAM Hu IP. On the procedure: (§1) In a typical experiment the M4 muscarinic acetylcholine receptor modulating activity of the compounds of the present invention was determined in accordance with the following experimental method. CHO-K1 cells stably transfected with human M4 receptor and chimeric G-protein Gαqi5 (Coward P, et al., Analytical Biochemistry, 270:242-248 (1999)) are thawed from liquid N2 storage, resuspended in growth medium, plated in black, clear bottom 384 well plates, and incubated 16-20 hours at 37° C., 5% CO2. On the day of assay, growth medium is removed, the cells are washed 2 times with wash buffer, and cells are incubated in dye loading buffer at 37° C., 5% CO2 for ˜1 hour. Following dye loading the cell plates are placed in a FLIPR Tetra instrument and while monitoring dye fluorescence (excitation […]), 10 uL of test substance at increasing concentrations is added, and fluorescence values are recorded for 4 min. Next, 10 uL of acetylcholine is added (final concentration calculated so as to achieve 20% of the maximum acetycholine response), and the fluorescence reading is continued for 3.5 min. In some cases, a third addition of acetylcholine (final concentration calculated to achieve 70% of the maximal acetylcholine response) is performed. The resulting dose response curves are fit to a 4 parameter logistic equation and the final result is determined as the inflection point (IP) of the curve
as §1, with “CHO-K1” for “In a typical experiment the M4 muscarinic acetylcholine receptor modulating activity of the compounds of the present invention was determined in accordance with the following experimental method. CHO-K1”, “Gαqi5” for “Gαqi5 (Coward P, et al., Analytical Biochemistry, 270:242-248 (1999))”, “performed.” for “performed. The resulting dose response curves are fit to a 4 parameter logistic equation and the final result is determined as the inflection point (IP) of the curve”
For the compound `COc1cc2ccc(-c3nc(C)ccc3-c3cnn(CC45CCC(CC4)CC5)c3)cc2nn1` [Example 15, 7-{3-[1-(bicyclo[2.2.2]oct-1-ylmethyl)-1H-pyrazol-4-yl]-6-methylpyridin-2-yl}-3-methoxycinnoline], the EC50 was 14 nM. The same measure for `Cc1nc(-c2ccc3cccnc3c2)c(-c2cnn(CC3(C(F)(F)F)CC3)c2)cc1C#N` [Example 56, 2-methyl-6-quinolin-7-yl-5-(1-{[1-(trifluoromethyl)cyclopropyl]methyl}-1H-pyrazol-4-yl)pyridine-3-carbonitrile]: 275 nM; for `N#Cc1ccc(-c2cnn(CC3(F)CCC3)c2)c(-c2ccc3cccnc3c2)n1` [Example 116, 5-{1-[(1-fluorocyclobutyl)methyl]-1H-pyrazol-4-yl}-6-quinolin-7-ylpyridine-2-carbonitrile]: 39 nM.

Take `Cc1ccc(-c2cnn(CC34CC(C3)C4)c2)c(-c2ccc3cccnc3c2)n1` [Example 9, 7-{3-[1-(bicyclo[1.1.1]pent-1-ylmethyl)-1H-pyrazol-4-yl]-6-methylpyridin-2-yl}quinoline]: the EC50 turned out to be 21 nM.

On to `CC(C)(CO)Cn1cc(-c2ccc(C#N)nc2-c2ccc3cccnc3c2)cn1` [Example 113, 5-[1-(3-hydroxy-2,2-dimethylpropyl)-1H-pyrazol-4-yl]-6-quinolin-7-ylpyridine-2-carbonitrile], for which the EC50 was 139 nM. For the compound `Cc1ccc(-c2cnn(CC3CCC(F)CC3)c2)c(-c2ccc3cccnc3c2)n1` (centres unmarked) [Example 18, 7-(3-{1-[(4-fluorocyclohexyl)methyl]-1H-pyrazol-4-yl}-6-methylpyridin-2-yl)quinoline], the EC50 came out at 88 nM. The same measure for `COc1cc2ccc(-c3nc(C)c(C)cc3-c3cnn(CCC(C)(C)OC)c3)cc2nn1` [Example 34, 3-methoxy-7-{3-[1-(3-methoxy-3-methylbutyl)-1H-pyrazol-4-yl]-5,6-dimethylpyridin-2-yl}cinnoline]: 141 nM; for `COc1cc2ccc(-c3nc(C)ccc3-c3cnn(CC4CC(F)(F)C4)c3)cc2nn1` [Example 78, 7-(3-{1-[(3,3-difluorocyclobutyl)methyl]-1H-pyrazol-4-yl}-6-methylpyridin-2-yl)-3-methoxycinnoline]: 190 nM. The same measure for `CC(C)Cn1cc(-c2ccc(C#N)nc2-c2ccc3cccnc3c2)cn1` [Example 110, 5-[1-(2-methylpropyl)-1H-pyrazol-4-yl]-6-quinolin-7-ylpyridine-2-carbonitrile]: 129 nM; for `COc1cc2ccc(-c3nc(C)ccc3-c3cnn(C4CCC(F)(F)CC4)c3)cc2nn1` [Example 108, 7-{3-[1-(4,4-difluorocyclohexyl)-1H-pyrazol-4-yl]-6-methylpyridin-2-yl}-3-methoxycinnoline]: 142 nM. The same measure for `CC(C)C(=O)Cn1cc(-c2ccc(C#N)nc2-c2ccc3cccnc3c2)cn1` [Example 60, 5-[1-(3-methyl-2-oxobutyl)-1H-pyrazol-4-yl]-6-quinolin-7-ylpyridine-2-carbonitrile]: 181 nM; for `N#Cc1nc(-c2ccc3cccnc3c2)c(-c2cnn(CC3(C(F)(F)F)CC3)c2)cc1F` [Example 47, 3-fluoro-6-quinolin-7-yl-5-(1-{[1-(trifluoromethyl)cyclopropyl]methyl}-1H-pyrazol-4-yl)pyridine-2-carbonitrile]: 88 nM. `CCc1ccc(-c2cnn(CCC(C)C)c2)c(-c2ccc3cccnc3c2)n1` [Example 73, 7-{6-ethyl-3-[1-(3-methylbutyl)-1H-pyrazol-4-yl]pyridin-2-yl}quinoline]: the EC50 came out at 140 nM. The figure for `COc1cc2ccc(-c3nc(C)ccc3-c3cnn(CC(C)(C)F)c3)cc2nn1` [Example 114, 7-{3-[1-(2-fluoro-2-methylpropyl)-1H-pyrazol-4-yl]-6-methylpyridin-2-yl}-3-methoxycinnoline] is 191 nM; for `COCCOc1ccc(-c2cnn(CCC(C)C)c2)c(-c2ccc3cccnc3c2)n1` [Example 75, 7-{6-(2-methoxyethoxy)-3-[1-(3-methylbutyl)-1H-pyrazol-4-yl]pyridin-2-yl}quinoline] it is 123 nM. Consider `CC(C)CCn1cc(-c2c(Cl)ccnc2-c2ccc3cccnc3c2)cn1` [Example 64, 7-{4-chloro-3-[1-(3-methylbutyl)-1H-pyrazol-4-yl]pyridin-2-yl}quinoline], for which the EC50 is 295 nM. The same measure for `CC(C)(C)Cn1cc(-c2cc(F)cnc2-c2ccc3cccnc3c2)cn1` [Example 55, 7-{3-[1-(2,2-dimethylpropyl)-1H-pyrazol-4-yl]-5-fluoropyridin-2-yl}quinoline]: 108 nM. `CC(C)CCn1cc(-c2ccc(C3=CCOCC3)nc2-c2ccc3cccnc3c2)cn1` [Example 67, 7-{6-(3,6-dihydro-2H-pyran-4-yl)-3-[1-(3-methylbutyl)-1H-pyrazol-4-yl]pyridin-2-yl}quinoline]: the EC50 turned out to be 121 nM.

Turning to `COc1cc2ccc(-c3nc(C)ccc3-c3cnn(CC4(C)CCC(F)(F)CC4)c3)cc2nn1` [Example 22, 7-(3-{1-[(4,4-difluoro-1-methylcyclohexyl)methyl]-1H-pyrazol-4-yl}-6-methylpyridin-2-yl)-3-methoxycinnoline], the EC50 is 16 nM.

For the compound `COc1cc2ccc(-c3nc(C#N)c(C)cc3-c3cnn(CCC(C)(C)OC)c3)cc2nn1` [Example 32, 6-(3-methoxycinnolin-7-yl)-5-[1-(3-methoxy-3-methylbutyl)-1H-pyrazol-4-yl]-3-methylpyridine-2-carbonitrile], the EC50 amounted to 113 nM. The same measure for `COc1cc2ccc(-c3nc(C#N)ccc3-c3cnn(CC(C)(C)C)c3)cc2nn1` [Example 38, 5-[1-(2,2-dimethylpropyl)-1H-pyrazol-4-yl]-6-(3-methoxycinnolin-7-yl)pyridine-2-carbonitrile]: 41 nM. In the case of `COc1cc2ccc(-c3nc(Cl)c(C)cc3-c3cnn(CCC(C)(C)OC)c3)cc2nn1` [Example 30, 7-{6-chloro-3-[1-(3-methoxy-3-methylbutyl)-1H-pyrazol-4-yl]-5-methylpyridin-2-yl}-3-methoxycinnoline], the EC50 was 143 nM. As for `Cc1ccc(-c2cnn(CCC(C)C(F)(F)F)c2)c(-c2ccc3cccnc3c2)n1` (centres unmarked) [Example 11, 7-{6-methyl-3-[1-(4,4,4-trifluoro-3-methylbutyl)-1H-pyrazol-4-yl]pyridin-2-yl}quinoline], the EC50 was determined as 89 nM. The figure for `C=Cc1ccc(-c2cnn(CCC(C)C)c2)c(-c2ccc3cccnc3c2)n1` [Example 72, 7-{6-ethenyl-3-[1-(3-methylbutyl)-1H-pyrazol-4-yl]pyridin-2-yl}quinoline] is 191 nM; for `COc1cc2ccc(-c3nc(C)ccc3-c3cnn(CCC4CCOC4)c3)cc2nn1` (centres unmarked) [Example 81, 3-methoxy-7-(6-methyl-3-{1-[2-(tetrahydrofuran-3-yl)ethyl]-1H-pyrazol-4-yl}pyridin-2-yl)cinnoline] it is 228 nM. Turning to `COc1cc2ccc(-c3nc(C)ccc3-c3cnn(CCCC(F)(F)F)c3)cc2nn1` [Example 77, 3-methoxy-7-{6-methyl-3-[1-(4,4,4-trifluorobutyl)-1H-pyrazol-4-yl]pyridin-2-yl}cinnoline], the EC50 stood at 271 nM.

For the compound `CC(C)(C)Cn1cc(-c2ccc(C#N)nc2-c2ccc3cc(F)cnc3c2)cn1` [Example 41, 5-[1-(2,2-dimethylpropyl)-1H-pyrazol-4-yl]-6-(3-fluoroquinolin-7-yl)pyridine-2-carbonitrile], the EC50 came out at 39 nM. The same measure for `COc1cc2ccc(-c3nc(C)ccc3-c3cnn(CC4CC5(CCC5)C4)c3)cc2nn1` [Example 83, 3-methoxy-7-{6-methyl-3-[1-(spiro[3.3]hept-2-ylmethyl)-1H-pyrazol-4-yl]pyridin-2-yl}cinnoline]: 99 nM; for `COc1cc2ccc(-c3nc(C)ccc3-c3cnn(CCC(C)(C)C#N)c3)cc2nn1` [Example 85, 4-{4-[2-(3-methoxycinnolin-7-yl)-6-methylpyridin-3-yl]-1H-pyrazol-1-yl}-2,2-dimethylbutanenitrile]: 199 nM.
